Measurements taken from US11278530B2, “Polycyclic amides as muscarinic M1 receptor positive allosteric modulators” (SUVEN LIFE SCIENCES LIMITED, priority 2017, dated 2022).

Columns and labels:
[1] = molecular target: T1, recombinant human Muscarinic M1 receptor (Homo sapiens, UniProt P11229); test: Allosteric potency EC50 for Muscarinic M1 receptor, CHO pCRE-Luc reporter cell-based assay with EC20 of acetylcholine; conditions: CHO cells, human M1, luciferase reporter, in presence of EC20 of acetylcholine, 4 h
T1 sequence (P11229 1-460): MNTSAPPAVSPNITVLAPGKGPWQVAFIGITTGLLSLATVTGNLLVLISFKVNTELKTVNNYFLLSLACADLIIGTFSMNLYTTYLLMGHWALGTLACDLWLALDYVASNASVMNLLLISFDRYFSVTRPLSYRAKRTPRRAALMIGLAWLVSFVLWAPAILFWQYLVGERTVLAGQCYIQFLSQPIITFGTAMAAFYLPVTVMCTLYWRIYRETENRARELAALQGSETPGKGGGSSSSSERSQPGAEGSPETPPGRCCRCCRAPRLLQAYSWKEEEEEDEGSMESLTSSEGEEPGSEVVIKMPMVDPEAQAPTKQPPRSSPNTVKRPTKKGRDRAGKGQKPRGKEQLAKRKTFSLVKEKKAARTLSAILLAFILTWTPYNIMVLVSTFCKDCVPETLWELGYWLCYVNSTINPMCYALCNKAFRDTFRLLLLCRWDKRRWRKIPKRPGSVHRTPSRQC
Experimental: Determination of allosteric potency EC50 values for Muscarinic M1 receptor:
A stable CHO cell line expressing recombinant human Muscarinic M1 receptor and pCRE-Luc reporter system was used for cell-based assay. The assay offers a non-radioactive based approach to determine binding of a compound to GPCRs. In this specific assay, the level of intracellular cyclic AMP which is modulated by activation or inhibition of the receptor is measured. The recombinant cells harbor luciferase reporter gene under the control of cAMP response element.
The above cells were grown in 96 well clear bottom white plates in Hams F12 medium containing 10% fetal bovine serum (FBS). Prior to the addition of compounds or standard agonist, cells were serum starved overnight. Increasing concentrations of test compounds were added along with EC20 of acetylcholine in OptiMEM medium to the cells. The incubation was continued at 37° C. in CO2 incubator for 4 h. Medium was removed and cells were washed with phosphate buffered saline. The cells were lysed and luciferase activity was measured in a Luminometer. Luminescence counts in each concentrations of test item were normalized to the acetylcholine induced maximum response and the data was analyzed using Graphpad software. EC50 values of the compounds were defined as the concentration required in stimulating the luciferase activity by 50% in presence of EC20 of acetylcholine.

[2] = Rodent pharmacokinetic study; type: in vivo, Male Wistar rats; conditions: male, Wistar, rat, plasma; for bioavailability: oral 3 mg/kg vs i.v. 1 mg/kg, read-out: F (bioavailability)
Experimental: Rodent Pharmacokinetic Study
Male Wistar rats (260±50 grams) were used as experimental animals. Animals were housed individually in polypropylene cage. Two days prior to study, male Wistar rats were anesthetized with isoflurane for surgical placement of jugular vein catheter. Rats were randomly divided for oral (3 mg/kg) and intravenous (i.v) (1 mg/kg) dosing (n=3/group) and fasted overnight before oral dosing (p.o.). However, rats allocated to intravenous (i.v.) dosing food and water was provided ad libitum.
At pre-determined point, blood was collected through jugular vein and replenished with an equivalent volume of normal saline. Collected blood was transferred into a labelled eppendorf tube containing 10 μL of heparin as an anticoagulant. Typically blood samples were collected at following time points: 0.08, 0.25, 0.5, 1, 2, 4, 6, 8, and 24 h post dose. Blood was centrifuged at 4000 rpm for 10 minutes. Plasma was separated and stored frozen at −80° C. until analysis. The concentrations of the test compounds were quantified in plasma by qualified LC-MS/MS method using suitable extraction technique. The test compounds were quantified in the calibration range around 1-1000 ng/mL in plasma. Study samples were analyzed using calibration samples in the batch and quality control samples spread across the batch.
Pharmacokinetic parameters Cmax, Tmax (h), AUCt, T1/2, clearance and bioavailability (F) were calculated by non-compartmental model using standard non-compartmental model by using Phoenix WinNonlin 6.0.2 or 6.0.3 version Software package.

[3] = Rodent brain penetration study; type: in vivo, Male Wistar rats; conditions: male, Wistar, brain and plasma, po; rat, 3 mg/kg, p.o. @ 1.0 hr, brain-plasma ratio; read-out: Single dose Rat Brain Penetration (Cb/Cp)
Experimental: Rodent Brain Penetration Study
Male Wistar rats (260±40 grams) were used as experimental animals. Three animals were housed in each cage. Animals were given water and food ad libitum throughout the experiment and maintained on a 12 h light/dark cycle.
Brain penetration was determined in discrete manner in rats. One day prior to dosing day, male Wistar rats were acclimatized and randomly grouped according to their weight. At each time point (0.5, 1 and 2 h) n=3 animals were used.
The test compounds were suitably preformulated and administered orally at (free base equivalent) 3 mg/kg. Blood samples were removed via cardiac puncture by using isoflurane anesthesia. The animals were sacrificed to collect brain tissue. Plasma was separated and brain samples were homogenized and stored frozen at −20° C. until analysis. The concentrations of the test compounds in plasma and brain were determined using LC-MS/MS method.
The test compounds were quantified in plasma and brain homogenate by qualified LC-MS/MS method using suitable extraction technique. The test compounds were quantified in the calibration range of 1-500 ng/mL in plasma and brain homogenate. Study samples were analyzed using calibration samples in the batch and quality control samples spread across the batch.

Male Wistar rats = test: Object recognition task model; type: in vivo; conditions: rat, p.o.; for Exploration time mean ± S.E.M, Familiar object / Exploration time mean ± S.E.M, Novel object: choice trial 24 h after T1
Experimental: Object Recognition Task Model
The cognition enhancing properties of compounds of this invention were estimated by using this model.
Male Wistar rats (8-10 weeks old) were used as experimental animals. Four animals were housed in each cage. Animals were kept on 20% food deprivation from a day prior to experimentation. Water was provided ad libitum throughout the experiment. Animals were maintained on a 12 h light/dark cycle in temperature and humidity controlled room. The experiment was carried out in circular arena made up of acrylic. Rats were habituated to individual arenas for up to 45 min in the absence of any objects on day 1.
One group of 12 rats received vehicle and another set of animals received compound of the formula (I), before the familiar (T1) and choice (T2) trials. During the familiarization phase, (T1), the rats were placed individually in the arena for 3 minutes, in which two identical objects (a1 and a2) were positioned 10 cm from the wall. 24 h after T1, trial for long-term memory test was performed. The same rats were placed in the same arena as they were placed in T1 trial. During the choice phase (T2) rats were allowed to explore the arena for 3 minutes in presence of a copy of familiar object (a3) and one novel object (b). During the T1 and T2 trial, explorations of each object (defined as sniffing, licking, chewing or having moving vibrissae whilst directing the nose towards the object at a distance of less than 1 cm) were recorded using stopwatch.
T1 is the total time spent exploring the familiar objects (a1+a2).
T2 is the total time spent exploring the familiar object and novel object (a3+b).
The object recognition test was performed as described by Ennaceur, A., Delacour, J., 1988, A new one-trial test for neurobiological studies of memory in rats—Behavioural data, Behav. Brain Res., 31, 47-59.

[4] = system: hippocampal θ rhythm, anesthetized male Wistar rats; test: Theta modulation in dorsal hippocampus of anesthetized rats in combination with donepezil; type: in vivo
Excerpt: Male Wistar rats (240-320 g) were anesthetized by intraperitoneal administration of urethane (1.2 to 1.5 g/kg) for implantation of a catheter in the left femoral vein. The animal was placed in a stereotaxic frame for implanting an electrode (stainless steel wire, Plastics One) into the dorsal hippocampus (AP: −3.8 mm; ML: +2.2 mm; DV: −2.5 mm; Paxinos and Watson, 2004). Bipolar stimulating electrode (untwisted stainless steel wires, separated by 0.75-1.0 mm at their tips, Plastics One) was implanted in the Nucleus Pontis Oralis (NPO; AP: −7.8 mm; ML: 1.8 mm; DV: −6.0 mm; Paxinos and Watson, 2004). Additionally one electrode was implanted into the cerebellum which served as a reference. Hippocampal θ rhythm was evoked via a 6-s electrical stimulation train (20-160 PA, 0.3-ms pulse duration, 250 Hz) delivered to the NPO at a rate of 0.01 trains/s with a Grass S88 stimulator and PSIU6 stimulus isolation unit (Grass Medical Instruments, Quincy, Mass.). EEG was recorded at a rate of 1000 Hz using Ponemah (Version 5.2) software and stored for off-line analysis using NeuroScore (Version 3.0). Baseline amplitude level was achieved by using the current required to elicit 0 rhythm to 50% of the maximal amplitude under control conditions.
Power in the θ rhythm frequency in the stimulation period during the 30 min baseline period was calculated and the % changes in these measures post treatment were calculated. […] Statistical significance was considered at a p value less than 0.05.

SMILES | EC50 [1] | AUC(0-t) ([2]; iv, i.v. 1 mg/kg) | half-life ([2]; iv, i.v. 1 mg/kg) | clearance ([2]; iv, i.v. 1 mg/kg) | bioavailability [2] | AUC(0-t) ([2]; oral 3 mg/kg) | Cmax ([2]; oral 3 mg/kg) | Tmax ([2]; oral 3 mg/kg) | half-life ([2]; oral 3 mg/kg) | Kp at 1 h [3] | also measured
Cc1c(Cc2ccc(-c3cnn(C)c3)cc2F)cc(C(=O)N[C@H]2CCCC[C@@H]2O)c2ncccc12 [Example 11, N-(cis-1S,2S-2-Hydroxycyclohexyl)-6-[2-fluoro-4-(1-methyl-1H-pyrazol-4-yl)-benzyl]-5-methylquinoline-8-carboxamide] | 100 nM | 12800 ± 2150 ng·h/mL | 3.9 ± 0.2 h | 1.3 ± 0.2 mL/min/kg | 105 ± 25% | 40300 ± 9420 ng·h/mL | 9690 ± 1420 ng/mL | 1 to 2 h | 4.8 ± 1.6 h | 0.14 ± 0.01 | Inference (Male Wistar rats; 0.3 mg/kg): Active; Exploration time mean ± S.E.M, Familiar object (Male Wistar rats; 0.3 mg/kg): 12.20 ± 1.89 s; Exploration time mean ± S.E.M, Novel object (Male Wistar rats; 0.3 mg/kg): 17.33 ± 1.39 s; Mean area under the curve values (AUC) of θ power change compared with donepezil alone ([4]; Example 11 (1 mg/kg, i.v.) and donepezil (0.3 mg/kg, i.v.) vs donepezil alone): significantly higher compared to donepezil alone; effect on θ power of combination treatment compared with donepezil alone ([4]; Example 11 (1 mg/kg, i.v.) in combination with donepezil (0.3 mg/kg, i.v.) vs donepezil alone): significantly higher than the donepezil alone; θ power levels ([4]; Example 11 (1 mg/kg, i.v.) in combination with donepezil (0.3 mg/kg, i.v.), anesthetized rat): significant increase
Cc1c(Cc2ccccc2)cc(C(=O)N[C@H]2CCCC[C@@H]2O)c2ncccc12 [Example 14, N-(cis-1S,2S-2-Hydroxycyclohexyl)-6-benzyl-5-methylquinoline-8-carboxamide] | 555 nM | 346 ± 25 ng·h/mL | 0.8 ± 0.1 h | 48 ± 3.4 mL/min/kg | 13 ± 2.7% | 137 ± 28 ng·h/mL | 70 ± 23 ng/mL | 0.5 h | 1.9 ± 0.1 h | 1.27 ± 0.07 | Inference (Male Wistar rats; 3 mg/kg): Active; Exploration time mean ± S.E.M, Familiar object (Male Wistar rats; 3 mg/kg): 8.35 ± 1.98 s; Exploration time mean ± S.E.M, Novel object (Male Wistar rats; 3 mg/kg): 15.54 ± 3.58 s
Cc1c(Cc2ccc(-c3cnn(C)c3)cc2)cc(C(=O)N[C@H]2CCCC[C@@H]2O)c2ncccc12 [Example 15, N-(cis-1S,2S-2-Hydroxycyclohexyl)-6-[4-(1-methyl-1H-pyrazol-4-yl)-benzyl]-5-methylquinoline-8-carboxamide] | 197 nM | 6860 ± 1810 ng·h/mL | 3.1 ± 0.3 h | 2.5 ± 0.6 mL/min/kg | 40 ± 11% | 8190 ± 2180 ng·h/mL | 1540 ± 397 ng/mL | 2 h | 3.7 ± 0.3 h | 0.78 ± 0.22 | Inference (Male Wistar rats; 1 mg/kg): Active; Exploration time mean ± S.E.M, Familiar object (Male Wistar rats; 1 mg/kg): 12.93 ± 1.83 s; Exploration time mean ± S.E.M, Novel object (Male Wistar rats; 1 mg/kg): 20.42 ± 3.42 s
